# Reference: ChEMBL document CHEMBL1201862, “PubChem BioAssay data set” (2004)
#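 How tested: cells in 96-well plates exposed to compound for 48 hours at five concentrations. GI50: concentration for 50% inhibition of growth.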 The source made the active and inactive calls. No stated cut-off is given here; in the data, active = GI50 up to about 1.1 µM and inactive = higher.
# Assays:
# Assay in all cases: growth of human tumour cells (NCI), 48 h
# DU-145 = system: DU-145
# Hs-578T = system: Hs-578T
# MDA-MB-231 = system: MDA-MB-231
# T47D = system: T47D
# DMS-273 = system: DMS-273
# KM-20L2 = system: KM-20L2
# M19-MEL = system: M19-MEL
# LXFL 529 = system: LXFL 529
# RXF 631 = system: RXF 631
SMILES,GI50 (DU-145),GI50 (Hs-578T),GI50 (MDA-MB-231),GI50 (T47D),GI50 (DMS-273),GI50 (KM-20L2),GI50 (M19-MEL),GI50 (LXFL 529),GI50 (RXF 631)
CCOC(=O)c1cc(C2CCN(Cc3ccccc3)C2=S)c(C(=O)C=[N+]=[N-])[nH]1 (centres undefined),33.4 µM (inactive),45.6 µM (inactive),33.1 µM (inactive),,,,,,
CCOC(=O)NC(OCc1ccccc1)(C(=O)OC)C(F)(F)F (centres undefined),> 100 µM (inactive),> 100 µM (inactive),> 100 µM (inactive),> 100 µM (inactive),,,,,
C/C=C/C1=CC(=O)C(O)C1O (centres undefined),,,,,25.9 µM (inactive),28.2 µM (inactive),26.7 µM (inactive),,
N#CCc1c(F)c(F)c(F)c(F)c1F,> 100 µM (inactive),> 100 µM (inactive),> 100 µM (inactive),> 100 µM (inactive),,,,,
Cc1ccc(S(=O)(=O)N2c3ccccc3[C@H]3CCc4c([nH]c5ccccc45)[C@H]32)cc1,> 100 µM (inactive),,0.65 µM (active),> 100 µM (inactive),,,,,
CC1CN=C(N(C(=O)Nc2ccccc2)C2CCCCC2)S1 (centres undefined),25.5 µM (inactive),20.7 µM (inactive),15.4 µM (inactive),17.7 µM (inactive),,,,,
O=C(Nc1c(C(=O)NC2CCCCC2)[nH]c(=O)[nH]c1=O)c1ccc(Cl)cc1,,,,,,,> 100 µM (inactive),> 100 µM (inactive),
COC(=O)C(C/C=C(\C)c1ccc(Cl)cc1)C(C)=O (centres undefined),,,,,32.7 µM (inactive),35.9 µM (inactive),32.7 µM (inactive),,
COc1ccc(/N=C(\C)c2ccncc2)cc1,83 µM (inactive),> 100 µM (inactive),> 100 µM (inactive),> 100 µM (inactive),,,,,
O=C(c1nc2ccc(Cl)cc2nc1O)C(O)c1ccccc1 (centres undefined),,,,,98.6 µM (inactive),76 µM (inactive),> 100 µM (inactive),32.7 µM (inactive),
Cc1csc(/N=C(/NCCN2CCOCC2)Nc2nc(C)cs2)n1,,,,,> 100 µM (inactive),> 100 µM (inactive),> 100 µM (inactive),,
COC(=O)C(=O)Cc1nc2ccccc2o1,,,,,,,> 100 µM (inactive),> 100 µM (inactive),> 100 µM (inactive)
Cc1ccc(NC(=O)C(Cc2c[nH]c3ccccc23)NC(=O)Oc2ccccc2)cc1C (centres undefined),> 100 µM (inactive),38.3 µM (inactive),> 100 µM (inactive),39.5 µM (inactive),,,,,
COc1ccc(-c2c3c(nc4nc(SCCc5ccccc5)nc(N)c24)CCCC3)cc1OC,> 100 µM (inactive),27 µM (inactive),> 100 µM (inactive),> 100 µM (inactive),,,,,
O=C1c2ccccc2C(=O)N1/N=C1/SC(=N\c2ccccc2)/C(=N/c2ccccc2)N1c1ccccc1,> 100 µM (inactive),> 22.9 µM (inactive),> 10 µM (inactive),> 100 µM (inactive),,,,,
O=C(O)CN(CC(=O)O)C(C(=O)O)c1ccccc1 (centres undefined),> 100 µM (inactive),> 100 µM (inactive),> 100 µM (inactive),> 100 µM (inactive),,,,,
Cc1cccc(C(C)C)c1NC(=O)/C(Cc1c([N+](=O)[O-])cccc1[N+](=O)[O-])=N/NC(=O)CC#N,,,,,> 100 µM (inactive),> 100 µM (inactive),> 100 µM (inactive),> 100 µM (inactive),> 100 µM (inactive)
C=CC(C)C1(CCCOCc2ccccc2)C(=S)N2CCC3(CC24CCCC14)OCCO3 (centres undefined),,,,,10.3 µM (inactive),62.2 µM (inactive),25.6 µM (inactive),6.1 µM (inactive),
Cc1ccc(/N=N/C(=N\NC(=O)c2ccc(C)cc2)c2ccc(N(CCC#N)CCC#N)cc2C)cc1,57.8 µM (inactive),16.4 µM (inactive),57.9 µM (inactive),49.7 µM (inactive),,,,,
